Data as given in article PMC3997178 (Neuron, 2014).

Columns and labels:
[1] = system: NMDA receptors; details: ref Frizelle et al., 2006; Urwyler et al., 1996; cited from earlier work
[2] = biological target: GluN1/GluN2A Tyr730Phe NMDA receptor (Rattus norvegicus, UniProt Q00959, Y730F); experiment: TEVC mutational analysis, GluN2A Tyr730Phe; details: Tyr730Phe vs wild type
[3] = biological target: GluN1/GluN2A Tyr730Met NMDA receptor (Rattus norvegicus, UniProt Q00959, Y730M); experiment: TEVC mutational analysis, GluN2A Tyr730Met; details: Tyr730Met vs wild type
[4] = biological target: GluN1/GluN2A Lys738Met NMDA receptor (Rattus norvegicus, UniProt Q00959, K738M); experiment: TEVC mutational analysis, GluN2A Lys738Met; details: Lys738Met vs wild type
[5] = biological target: GluN1/GluN2A Val734Ala NMDA receptor (Rattus norvegicus, UniProt Q00959, V734A); experiment: TEVC mutational analysis, GluN2A Val734Ala; details: Val734Ala vs wild type
[6] = system: non-NMDA receptors; experiment: D-AP5 effect on non-NMDA receptors; format: cell-based; details: as high as 100 µM
[7] = biological target: GluN1/GluN2A Tyr737Ala NMDA receptor (Rattus norvegicus, UniProt Q00959, Y737A); experiment: TEVC mutational analysis, GluN2A Tyr737Ala; details: Tyr737Ala vs wild type
[8] = biological target: GluA2 Leu704Tyr (Rattus norvegicus, UniProt P19491, L504Y/L725Y); experiment: D-AP5 sensitivity of GluA2 Leu704 to tyrosine mutant; format: cell-based; details: data not shown
GluA2 Leu704Tyr, sequence (P19491 22-883 isoform P19491-2 L504Y/L725Y): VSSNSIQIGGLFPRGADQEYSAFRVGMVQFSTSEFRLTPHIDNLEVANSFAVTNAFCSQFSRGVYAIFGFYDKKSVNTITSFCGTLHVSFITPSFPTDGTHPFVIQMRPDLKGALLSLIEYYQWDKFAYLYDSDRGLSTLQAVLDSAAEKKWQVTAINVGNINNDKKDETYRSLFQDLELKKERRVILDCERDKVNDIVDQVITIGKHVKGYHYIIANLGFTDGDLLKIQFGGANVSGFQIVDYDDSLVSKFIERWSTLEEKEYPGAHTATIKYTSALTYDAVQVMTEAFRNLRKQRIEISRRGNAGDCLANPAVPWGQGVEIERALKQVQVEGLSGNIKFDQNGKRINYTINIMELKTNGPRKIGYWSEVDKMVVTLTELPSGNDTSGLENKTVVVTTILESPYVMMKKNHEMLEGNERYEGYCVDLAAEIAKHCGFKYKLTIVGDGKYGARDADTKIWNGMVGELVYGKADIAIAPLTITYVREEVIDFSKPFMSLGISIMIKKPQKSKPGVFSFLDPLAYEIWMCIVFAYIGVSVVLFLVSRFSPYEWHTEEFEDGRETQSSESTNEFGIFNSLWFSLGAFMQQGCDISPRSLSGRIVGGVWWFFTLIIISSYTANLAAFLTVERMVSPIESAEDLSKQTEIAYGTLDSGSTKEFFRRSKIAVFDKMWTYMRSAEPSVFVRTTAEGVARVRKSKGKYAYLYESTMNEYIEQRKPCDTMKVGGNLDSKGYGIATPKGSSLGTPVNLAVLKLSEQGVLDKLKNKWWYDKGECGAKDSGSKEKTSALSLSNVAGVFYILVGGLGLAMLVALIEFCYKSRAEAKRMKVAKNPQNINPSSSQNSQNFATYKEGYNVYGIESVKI

[9] = biological target: GluN1/GluN2A Val713Ala NMDA receptor (Rattus norvegicus, UniProt Q00959, V713A); experiment: TEVC mutational analysis, GluN2A Val713Ala; details: Val713Ala vs wild type
[10] = biological target: GluK1 Met722Tyr (Rattus norvegicus, UniProt P22756, M752Y); experiment: D-AP5 sensitivity of GluK1 Met722 to tyrosine mutant; format: cell-based; details: data not shown
GluK1 Met722Tyr, sequence (P22756 31-949 M752Y): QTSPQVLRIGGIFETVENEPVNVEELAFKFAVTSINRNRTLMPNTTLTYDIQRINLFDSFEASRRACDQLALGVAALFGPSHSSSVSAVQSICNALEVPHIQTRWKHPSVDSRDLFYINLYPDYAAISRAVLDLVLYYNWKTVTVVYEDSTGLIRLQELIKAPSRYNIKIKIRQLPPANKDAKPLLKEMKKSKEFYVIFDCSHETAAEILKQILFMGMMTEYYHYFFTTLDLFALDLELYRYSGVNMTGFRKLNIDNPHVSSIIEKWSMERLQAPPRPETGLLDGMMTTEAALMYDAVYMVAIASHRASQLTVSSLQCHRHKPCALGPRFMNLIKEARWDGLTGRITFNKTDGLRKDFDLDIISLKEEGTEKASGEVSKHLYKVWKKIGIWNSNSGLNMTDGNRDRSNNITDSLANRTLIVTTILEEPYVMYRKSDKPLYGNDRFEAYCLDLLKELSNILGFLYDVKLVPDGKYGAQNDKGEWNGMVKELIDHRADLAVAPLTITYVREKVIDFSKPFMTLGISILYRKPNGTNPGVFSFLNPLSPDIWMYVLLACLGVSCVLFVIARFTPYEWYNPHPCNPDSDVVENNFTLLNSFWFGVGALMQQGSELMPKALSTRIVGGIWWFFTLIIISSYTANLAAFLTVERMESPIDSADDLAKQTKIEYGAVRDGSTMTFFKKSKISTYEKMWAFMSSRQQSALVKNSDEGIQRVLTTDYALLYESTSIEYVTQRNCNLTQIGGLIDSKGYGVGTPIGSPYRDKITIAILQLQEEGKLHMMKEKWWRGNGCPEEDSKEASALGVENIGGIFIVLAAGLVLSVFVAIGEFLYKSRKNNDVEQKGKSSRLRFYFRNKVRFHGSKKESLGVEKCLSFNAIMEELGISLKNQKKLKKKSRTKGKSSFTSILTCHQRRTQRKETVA

[11] = biological target: GluN1/GluN2A Tyr730Leu NMDA receptor (Rattus norvegicus, UniProt Q00959, Y730L); experiment: TEVC mutational analysis, GluN2A Tyr730Leu; details: Tyr730Leu vs wild type
GluN1/GluN2A Tyr730Leu NMDA receptor, sequence (Q00959 20-1464 Y730L limits assumed, other chains not shown): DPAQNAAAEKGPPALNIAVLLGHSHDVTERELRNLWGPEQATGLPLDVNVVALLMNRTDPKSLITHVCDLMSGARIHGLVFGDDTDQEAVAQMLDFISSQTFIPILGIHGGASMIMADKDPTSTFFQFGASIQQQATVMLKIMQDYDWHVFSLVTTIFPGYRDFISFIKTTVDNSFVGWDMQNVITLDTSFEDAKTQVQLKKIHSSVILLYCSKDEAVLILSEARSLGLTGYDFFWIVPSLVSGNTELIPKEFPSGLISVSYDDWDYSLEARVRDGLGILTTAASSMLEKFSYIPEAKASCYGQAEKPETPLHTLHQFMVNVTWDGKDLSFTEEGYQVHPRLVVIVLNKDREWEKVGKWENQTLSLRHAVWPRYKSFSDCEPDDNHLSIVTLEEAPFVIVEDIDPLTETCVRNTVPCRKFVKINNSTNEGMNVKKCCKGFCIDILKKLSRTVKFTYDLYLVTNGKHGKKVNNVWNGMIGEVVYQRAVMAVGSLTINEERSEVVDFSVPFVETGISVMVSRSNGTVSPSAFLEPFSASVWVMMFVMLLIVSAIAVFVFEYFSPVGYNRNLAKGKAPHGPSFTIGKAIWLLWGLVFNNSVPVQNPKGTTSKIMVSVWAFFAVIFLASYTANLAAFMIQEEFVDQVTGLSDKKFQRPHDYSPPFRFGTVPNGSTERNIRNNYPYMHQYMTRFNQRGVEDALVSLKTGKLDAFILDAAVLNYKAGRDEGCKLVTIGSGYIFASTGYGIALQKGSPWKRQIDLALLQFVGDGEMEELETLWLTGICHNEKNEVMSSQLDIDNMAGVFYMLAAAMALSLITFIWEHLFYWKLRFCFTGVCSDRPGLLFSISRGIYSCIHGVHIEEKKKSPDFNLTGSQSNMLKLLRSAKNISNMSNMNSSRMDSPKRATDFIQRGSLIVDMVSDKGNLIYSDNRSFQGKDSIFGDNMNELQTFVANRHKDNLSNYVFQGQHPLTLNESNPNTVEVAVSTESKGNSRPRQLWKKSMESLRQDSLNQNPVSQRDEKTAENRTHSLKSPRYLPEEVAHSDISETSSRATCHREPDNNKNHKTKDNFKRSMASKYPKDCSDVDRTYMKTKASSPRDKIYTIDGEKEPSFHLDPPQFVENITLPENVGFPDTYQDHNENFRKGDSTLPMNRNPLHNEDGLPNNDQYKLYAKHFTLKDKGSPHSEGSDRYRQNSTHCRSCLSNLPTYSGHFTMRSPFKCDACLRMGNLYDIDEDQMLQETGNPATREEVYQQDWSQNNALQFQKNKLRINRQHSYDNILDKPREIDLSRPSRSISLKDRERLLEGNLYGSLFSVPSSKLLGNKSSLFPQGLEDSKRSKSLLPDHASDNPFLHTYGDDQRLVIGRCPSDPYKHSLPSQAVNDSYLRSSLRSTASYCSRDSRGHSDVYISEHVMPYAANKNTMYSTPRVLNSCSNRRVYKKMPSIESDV

[12] = biological target: GluN1/GluN2A Phe416Ala NMDA receptor (Rattus norvegicus, UniProt Q00959, F416A); experiment: TEVC mutational analysis, GluN2A Phe416Ala; details: Phe416Ala vs wild type
[13] = system: GluN2A containing NMDA receptors; details: ref Frizelle et al., 2006; cited from earlier work
[14] = biological target: GluN1/GluN2A NMDA receptors (Rattus norvegicus, UniProt Q00959); format: cell-based
[15] = system: GluN1/GluN2D NMDA receptors; experiment: TEVC inhibition of currents, GluN1/GluN2D in Xenopus oocytes; format: cell-based, rat
[16] = biological target: GluA2 AMPA receptors (Leu483Tyr, flip) (Rattus norvegicus, UniProt P19491, L504Y); experiment: TEVC inhibition of L-glutamate induced currents, non-desensitizing GluA2 mutant; format: cell-based
GluA2 AMPA receptors (Leu483Tyr, flip), sequence (P19491 22-883 isoform P19491-2 L504Y limits assumed): as the sequence (P19491 22-883 isoform P19491-2 L504Y/L725Y) above, with Y704L counted along it

[17] = biological target: GluN1/GluN2A NMDA receptors (Rattus norvegicus, UniProt P35439+Q00959); format: cell-based
[18] = biological target: GluK1 kainate receptors (Tyr506Cys Leu768Cys) (Rattus norvegicus, UniProt P22756, L798C/Y536C); experiment: TEVC inhibition of L-glutamate induced currents, non-desensitizing GluK1 mutant; format: cell-based
GluK1 kainate receptors (Tyr506Cys Leu768Cys), sequence (P22756 31-949 Y536C/L798C): as the sequence (P22756 31-949 M752Y) above, with Y506C, Y722M, L768C counted along it

[19] = 100 µM compound in the presence of 30 µM glutamate

GluN1/GluN2A Tyr730Phe NMDA receptor, sequence (Q00959 20-1464 Y730F limits assumed, other chains not shown): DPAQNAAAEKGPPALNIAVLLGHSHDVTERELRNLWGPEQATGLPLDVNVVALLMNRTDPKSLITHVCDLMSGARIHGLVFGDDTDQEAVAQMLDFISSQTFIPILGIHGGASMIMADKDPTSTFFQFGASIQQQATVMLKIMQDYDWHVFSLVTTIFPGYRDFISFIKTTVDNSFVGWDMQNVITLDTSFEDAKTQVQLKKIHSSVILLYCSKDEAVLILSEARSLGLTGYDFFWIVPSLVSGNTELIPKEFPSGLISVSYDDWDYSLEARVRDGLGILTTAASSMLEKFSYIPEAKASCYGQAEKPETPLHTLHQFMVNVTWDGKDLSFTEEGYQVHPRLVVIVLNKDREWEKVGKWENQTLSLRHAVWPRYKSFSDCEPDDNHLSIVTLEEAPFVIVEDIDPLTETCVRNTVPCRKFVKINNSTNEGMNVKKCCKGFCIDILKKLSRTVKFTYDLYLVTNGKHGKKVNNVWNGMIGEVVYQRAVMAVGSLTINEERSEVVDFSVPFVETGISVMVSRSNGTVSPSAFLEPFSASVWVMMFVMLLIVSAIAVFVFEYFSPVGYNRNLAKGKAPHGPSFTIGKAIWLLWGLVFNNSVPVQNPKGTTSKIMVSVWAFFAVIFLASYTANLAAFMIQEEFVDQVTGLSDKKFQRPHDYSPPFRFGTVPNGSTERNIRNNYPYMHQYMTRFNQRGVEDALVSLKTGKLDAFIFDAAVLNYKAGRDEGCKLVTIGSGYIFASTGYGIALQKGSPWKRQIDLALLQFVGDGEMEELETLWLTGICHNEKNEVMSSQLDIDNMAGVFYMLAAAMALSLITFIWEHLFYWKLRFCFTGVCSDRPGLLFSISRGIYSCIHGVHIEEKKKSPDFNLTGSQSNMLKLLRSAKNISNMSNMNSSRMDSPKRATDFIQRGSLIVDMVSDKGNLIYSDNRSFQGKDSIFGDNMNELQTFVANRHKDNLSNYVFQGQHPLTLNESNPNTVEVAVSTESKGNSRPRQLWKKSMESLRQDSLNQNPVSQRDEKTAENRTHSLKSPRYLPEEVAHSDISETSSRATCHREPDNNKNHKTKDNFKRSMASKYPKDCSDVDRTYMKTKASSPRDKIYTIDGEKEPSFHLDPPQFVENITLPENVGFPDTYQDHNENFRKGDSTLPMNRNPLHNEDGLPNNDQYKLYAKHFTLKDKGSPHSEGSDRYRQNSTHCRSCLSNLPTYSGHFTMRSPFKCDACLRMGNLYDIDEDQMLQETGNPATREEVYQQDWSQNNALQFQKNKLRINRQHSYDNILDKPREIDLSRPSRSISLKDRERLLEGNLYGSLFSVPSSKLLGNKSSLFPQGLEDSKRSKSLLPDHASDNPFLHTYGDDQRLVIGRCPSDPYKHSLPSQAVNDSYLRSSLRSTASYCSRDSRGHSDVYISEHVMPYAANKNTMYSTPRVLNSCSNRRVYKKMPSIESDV

For `N[C@@H](Cc1cc(-c2ccc(Cl)cc2Cl)cc(CP(=O)(O)O)c1O)C(=O)O` [SDZ220-040], the potency [1] is given as “nanomolar potency”.

For `N[C@H](CCCP(=O)(O)O)C(=O)O` [D-AP5, D-(−)-2-Amino-5-phosphonopentanoic acid], the change in sensitivity [2] was “five-fold decrease in sensitivity”, the “fold increase in Ki” value [3] was ~ 80 fold and the “effect of mutation on potency” value [4] was “only minor effects”. For the same compound, the “effect of mutation on potency” value [5] was “only minor effects”, the inhibitory effect [6] was “no inhibitory effect” and the “effect of mutation on potency” value [7] was “only minor effects”. The “sensitivity to D-AP5” value [8] was “does not confer sensitivity”, the “effect of mutation on sensitivity” value [9] was “minor effects” and the “sensitivity to D-AP5” value [10] was “does not confer sensitivity”. The “fold increase in Ki” value [11] was ~ 20 fold and the “effect of mutation on sensitivity” value [12] was “minor effects”.

In the case of `C[C@H](N[C@@H](c1cccc2[nH]c(=O)c(=O)[nH]c12)P(=O)(O)O)c1ccc(Br)cc1` [NVP-AAM077], the potency [1] is listed as “nanomolar potency” and the “specificity toward GluN2A containing over GluN2B containing NMDA receptors” value [13] is listed as 5 fold.

With `O=C(O)C1NCCN(C(=O)c2ccc3c(ccc4ccccc43)c2)C1C(=O)O` (single isomer, unassigned; (+)) [(+)-PPDA, 1-(Phenanthrene-2-carbonyl)piperazine-2,3-dicarboxylic acid] the “fold weaker potency than (−)-PPDA” value ([14]; dose-response inhibition, TEVC) was 6–7 fold, the “fold higher potency toward GluN1/GluN2D than GluN1/GluN2A” value [15] was 5–6 fold and the “fold weaker potency than (−)-PPDA” value ([15]; dose-response inhibition) was 6–7 fold.

For `O=C(O)C1NCCN(C(=O)c2ccc3c(ccc4ccccc43)c2)C1C(=O)O` (single isomer, unassigned; (-)) [(−)-PPDA, 1-(Phenanthrene-2-carbonyl)piperazine-2,3-dicarboxylic acid], the Ki [16] was 7850 nM, the inhibition of current [16, 19] was “completely inhibited” and the Ki [17] was 820 nM. The inhibition of current ([14]; 100 µM compound in the presence of agonists (100 µM glycine/30 µM glutamate)) was “completely inhibited”, the change in sensitivity [2] was “increase in (−)-PPDA sensitivity” and the change in sensitivity [3] was “little or no change”. The “effect of mutation on potency” value [4] was “increases the (−)-PPDA sensitivity”, the Ki [18] was 1170 nM and the inhibition of current [18, 19] was “completely inhibited”. The “effect of mutation on potency” value [5] was “decreases the (−)-PPDA sensitivity”, the “effect of mutation on potency” value [7] was “decreases the (−)-PPDA sensitivity” and the “effect of mutation on sensitivity” value [9] was “minor effects”. The change in sensitivity [11] was “little or no change” and the “effect of mutation on sensitivity” value [12] was “minor effects”.
